For experiment [1], the target named is T1, BRD4 (Homo sapiens, UniProt O60885). Nature of the experiment: Summary of BRD4 degradation by CURE-PRO pairs, estimated from Western Blot or WES. It counts as cell-based. Further details: endogenous in cells. To be noted: for Degradation of BRD4, combination with CRBN ligand 8048: Table 4, aromatic 1,2-diol BRD4 ligand + 8048; for Degradation of BRD4, combination with CRBN ligand 8046: Table 1, aryl-boronic acid BRD4 ligand + 8046; for Degradation of BRD4, combination with CRBN ligand 8047: Table 1, aryl-boronic acid BRD4 ligand + 8047; for Degradation of BRD4, combination with CRBN ligand 8066: Table 1, aryl-boronic acid BRD4 ligand + 8066. Here is the method:
(§1) Namalwa, Ramosm HeLa, MCF7, or HT29 HCT116 cells (2.5-3×10^6) were treated for 24 hours with the indicated compounds solubilized in DMSO. The cells were washed in ice-cold PBS and were then lysed in RIPA lysis buffer (150 mM NaCl, 5 mM EDTA, 1% NP-40, 0.5% sodium deoxycholate, 0.1% SDS, 50 mM Tris, pH 8.0.) with Roche protease inhibitor complete cocktail and phosphatase inhibitors (10 mM sodium fluoride, 10 mM sodium pyrophosphate, 1 mM sodium orthovanadate and 20 mM β-glycerophosphate). The total protein concentrations were determined by Bradford Protein Assay (Pierce) and 10-20 μg of protein was loaded onto 4-15% Tris-Glycine gradient gels (Biorad). After standard gel electrophoresis, the separated proteins were transferred to PVDF membrane by wet transfer. The immunoblots were then blocked for 1 hour in 5% skim milk in TBST or 5% BSA in TBST, according to manufacturer's instructions, before an overnight incubation at 4° C. with indicated antibodies and membranes. Membranes were then incubated with the appropriate horseradish peroxidase-conjugated secondary antibodies (1:5,000 dilution) for 1 h at room temperature and the bands were visualized using the Clarity Max Western ECL Substrate (Biorad) and the ChemiDoc Imaging System (Biorad). Signal was detected with ECL Western Blotting Substrate (Pierce) and X-ray film processed with a Konica SRX-101 X-ray film processor or captured by Bio-Rad's Chemidoc Imaging system.
WES Simple analysis was performed on WES system (ProteinSimple-Biotechne) according to the manufacturer's instructions. Total protein concentrations of cell lysates were determined by the Pierce BCA kit (Thermo Fisher). 3 μL of 0.3 μg/μL of the protein lysate was loaded onto a 12- to 230-kDa WES assay plate (ProteinSimple) where 300 nL sample was withdrawn through a capillary, subjected to electrophoretic separation of proteins by size, and followed by the simultaneous, HRP-based detection of proteins using the Anti-Rabbit Detection Module (Proteinsimple: #DM-001). The electropherograms were checked then the automatic peak detection was manually corrected if it was required.
A black check mark indicates efficacy of 30% to 70% or higher protein degradation.

In experiment [2] the target is T1, BRD4. Nature of the experiment: CURE-PRO-mediated BRD4 degradation in HeLa cells, Western blot. Type of experiment: cell-based. Also noted: endogenous in cells; host or cells: HeLa. To be noted: 24 h. Here is the method:
All cell lines were purchased from ATCC or DSMZ and grown at 37° C. with 5% CO2. Human HeLa cells were cultured in complete growth medium (Dulbecco's modified Eagle's medium (DMEM) supplemented with 10% FBS); MCF7 cells were cultured in complete growth medium (Dulbecco's modified Eagle's medium (DMEM) supplemented with 10% FBS and 0.01 mg/ml human recombinant insulin (Sigma Aldrich); Namalwa and Ramos cells were cultured in complete growth medium (RPMI 1640 medium supplemented with 10% FBS); HCT116 and HT29 cells were cultured in complete growth medium (McCoy's 5a Medium supplemented with 10% FBS). For cellular degradation of BRD4 studies cells were seeded in a 12-well plate at 70-80% confluency, allowed to attach overnight, and incubated with the indicated compounds for the indicated time. When indicated, a 15-minute pretreatment with 10 μM pomalidomide, 10 μM VHL298, 10 μM Nutlin3a, 1 μM MG-132 or 1 μM Carfilzomib was performed before the addition of CURE-PROs. For washout studies, after CURE-PRO treatment, media was aspirated and incubated with complete medium for the indicated time before lysis.
as §1
HeLa cells (2.5×10^6) were treated for 24 hours with the sample compounds solubilized in DMSO. Compounds were added at 1-10 μM each. Standardized protein samples were electrophoresed and imaged as described in the immunoblotting description above. FIGS. 6-18 depicts the CURE-PRO-mediated BRD4 degradation for BRD monomers (JQ1 derivatives comprising of catechol linkers), and CRBN ligands, 8048 and 8049 (pomalidomide derivatives comprising boronic acid linkers) combined in a 1:1 ratio.
HeLa cells (2.5×10^6) were treated for 24 hours with the compounds solubilized in DMSO. The compounds were added at 10 μM each. Standardized protein samples were electrophoresed and imaged as described in the immunoblotting section above. FIGS. 23-27 depicts the CURE-PRO-mediated BRD4 degradation for BRD monomers (JQ1 derivatives comprising of boronic acid linkers), and CRBN ligands, 8046, 8047 and 8066 (pomalidomide derivatives comprising diol linkers) combined in a 1:1 ratio.
HeLa cells (2.5×10^6) were treated for 24 hours with the compounds solubilized in DMSO. Compounds were added at 10 μM and 100 μM each. Standardized protein samples were electrophoresed and imaged as described in the immunoblotting section above.
HeLa cells (2.5×10^6) were treated for 24 hours with the compounds solubilized in DMSO. Compounds were added at 1 nM-1 μM each. […]

Where [3] appears, read: BRD4 monomer alone, HeLa, 1-10 μM.
The mark [4] stands for this setting: co-treated 1:1 with CRBN ligand 8048, HeLa, 1-10 μM each.
[5] abbreviates: co-treated 1:1 with CRBN ligand 8049, HeLa, 1-10 μM each.
[6] abbreviates: co-treated 1:1 with CRBN ligand 8046, HeLa, 10 μM each.
[7] abbreviates: co-treated 1:1 with CRBN ligand 8047, HeLa, 10 μM each.
[8] abbreviates: co-treated 1:1 with CRBN ligand 8066, HeLa, 10 μM each.

“Also recorded” adds a separate entry of the source.

`CCNC(=O)C[C@@H]1N=C(c2ccc(Cl)cc2)c2cc(OCCOCCOCCOCCOCCOCCNC(=O)c3cccc(O)c3O)ccc2-n2c(C)nnc21` [BRD-N71, N-(17-(((4S)-6-(4-chlorophenyl)-4-(2-(ethylamino)-2-oxoethyl)-1-methyl-4H-benzo[f][1,2,4]triazolo[4,3-a][1,4]diazepin-8-yl)oxy)-3,6,9,12,15-pentaoxaheptadecyl)-2,3-dihydroxybenzamide]: the “Degradation of BRD4, combination with CRBN ligand 8048” value (“Degradation … with CRBN ligand 8048” below) at BRD4 [1] is “√ (A black check mark indicates efficacy of 30% to 70% or higher protein degradation)”. At BRD4 [1] (Table 5, aromatic 1,2-diol BRD4 ligand + 8312), the “Degradation of BRD4, combination with MDM2 ligand 8312” value is on record as “√ (A black check mark indicates efficacy of 30% to 70% or higher protein degradation)”. For the same compound, the BRD4 degradation result is “there is no degradation of BRD4” at BRD4 [2] (setting [3]); “causes degradation of BRD4; also recorded: Some selectivity for BRD-N71 and 8048 is noted” on BRD4 [2] (setting [4]); “no evidence of BRD4 degradation” on BRD4 [2] (setting [5]).

On to `COc1ccc2c(c1)C(c1ccc(Cl)cc1)=N[C@@H](CC(=O)NCCCNC(=O)c1cccc(B(O)O)c1)c1nnc(C)n1-2` [BRD-E4], for which, at BRD4 [1], the “Degradation of BRD4, combination with CRBN ligand 8046” value is given as “√ (A black check mark indicates efficacy of 30% to 70% or higher protein degradation)”; the “Degradation of BRD4, combination with CRBN ligand 8047” value (“Degradation … with CRBN ligand 8047” for short) is reported as “√ (A black check mark indicates efficacy of 30% to 70% or higher protein degradation)”; the “Degradation of BRD4, combination with CRBN ligand 8066” value (from here on “Degradation … with CRBN ligand 8066”) is listed as “√ (A black check mark indicates efficacy of 30% to 70% or higher protein degradation)”. Besides, the BRD4 degradation entry at BRD4 [2] (setting [6]) was “causes degradation of BRD4; also recorded: Degradation is noted”. Further, on BRD4 [2] (setting [7]), the BRD4 degradation result is on record as “causes degradation of BRD4; also recorded: Degradation is noted”. Besides, at BRD4 [2] (setting [8]), the BRD4 degradation entry is given as “causes degradation of BRD4; also recorded: Degradation is noted”.

On to `COc1ccc2c(c1)C(c1ccc(Cl)cc1)=N[C@@H](CC(=O)Nc1ccc(B(O)O)cc1)c1nnc(C)n1-2` [BRD-E74, (4-(2-((4S)-6-(4-chlorophenyl)-8-methoxy-1-methyl-4H-benzo[f][1,2,4]triazolo[4,3-a][1,4]diazepin-4-yl)acetamido)phenyl)boronic acid], for which, at BRD4 [1], the “Degradation of BRD4, combination with CRBN ligand 8046” value was “√ (A black check mark indicates efficacy of 30% to 70% or higher protein degradation)”. Also, the “Degradation of BRD4, combination with MDM2 ligand 8314” value at BRD4 [1] (Table 2, aryl-boronic acid BRD4 ligand + 8314) is recorded as “√ (A black check mark indicates efficacy of 30% to 70% or higher protein degradation)”. The BRD4 degradation entry at BRD4 [2] (setting [6]) and at BRD4 [2] (setting [7]) was “causes degradation of BRD4” in each case.

As for `COc1ccc2c(c1)C(c1ccc(Cl)cc1)=N[C@@H](CC(=O)NCCNC(=O)Cc1ccc(O)c(O)c1)c1nnc(C)n1-2` [BRD-N30], the “Degradation … with CRBN ligand 8048” value on BRD4 [1] is reported as “√ (A black check mark indicates efficacy of 30% to 70% or higher protein degradation)”. The BRD4 degradation entry at BRD4 [2] (setting [3]) was “there is no degradation of BRD4”; at BRD4 [2] (setting [4]), “causes degradation of BRD4”.

Turning to `COc1ccc2c(c1)C(c1ccc(Cl)cc1)=N[C@@H](CC(=O)NCCOCCOCCOCCNC(=O)c1ccc(O)c(O)c1)c1nnc(C)n1-2` [BRD-N44], the “Degradation … with CRBN ligand 8048” value at BRD4 [1] is given as “√ (A black check mark indicates efficacy of 30% to 70% or higher protein degradation)”. Moreover, the BRD4 degradation entry on BRD4 [2] (setting [3]) is reported as “there is no degradation of BRD4”; at BRD4 [2] (setting [4]), “causes degradation of BRD4”.

With `COc1ccc2c(c1)C(c1ccc(Cl)cc1)=N[C@@H](CC(=O)NCCOCCOCCNC(=O)c1ccc(B(O)O)cc1)c1nnc(C)n1-2` [BRD-E45], the “Degradation … with CRBN ligand 8066” value at BRD4 [1] is listed as “√ (A black check mark indicates efficacy of 30% to 70% or higher protein degradation)”. Also, the “Degradation of BRD4, combination with VHL ligand 8305” value on BRD4 [1] (Table 3, aryl-boronic acid BRD4 ligand + 8305) was “√ (A black check mark indicates efficacy of 30% to 70% or higher protein degradation)”. In addition, at BRD4 [2] (setting [8]), the BRD4 degradation result is listed as “causes degradation of BRD4”.

Take `COc1ccc2c(c1)C(c1ccc(Cl)cc1)=N[C@@H](CC(=O)NCCOCCOCCOCCOCCNC(=O)c1ccc(O)c(O)c1)c1nnc(C)n1-2` [BRD-N69]: the “Degradation … with CRBN ligand 8048” value on BRD4 [1] is on record as “√ (A black check mark indicates efficacy of 30% to 70% or higher protein degradation)”. Moreover, the BRD4 degradation entry on BRD4 [2] (setting [3]) was “there is no degradation of BRD4”; at BRD4 [2] (setting [4]), “causes degradation of BRD4; also recorded: Degradation is noted”; at BRD4 [2] (setting [5]), “no evidence of BRD4 degradation”.

As for `COc1ccc2c(c1)C(c1ccc(Cl)cc1)=N[C@@H](CC(=O)NCCCCNC(=O)c1cccc(O)c1O)c1nnc(C)n1-2` [BRD-N6], the “Degradation … with CRBN ligand 8048” value at BRD4 [1] is “√ (A black check mark indicates efficacy of 30% to 70% or higher protein degradation)”. Also, the BRD4 degradation result on BRD4 [2] (setting [3]) was “there is no degradation of BRD4”; on BRD4 [2] (setting [4]), “causes degradation of BRD4; also recorded: Degradation is noted”; on BRD4 [2] (setting [5]) it was “no evidence of BRD4 degradation”.

Consider `COc1ccc2c(c1)C(c1ccc(Cl)cc1)=N[C@@H](CC(=O)NCCCCNC(=O)c1ccc(B(O)O)cc1)c1nnc(C)n1-2` [BRD-E5], for which the “Degradation … with CRBN ligand 8047” value at BRD4 [1] was “√ (A black check mark indicates efficacy of 30% to 70% or higher protein degradation)”. At BRD4 [1], the “Degradation … with CRBN ligand 8066” value is given as “√ (A black check mark indicates efficacy of 30% to 70% or higher protein degradation)”. Also, the BRD4 degradation result at BRD4 [2] (setting [7]) and on BRD4 [2] (setting [8]) was “causes degradation of BRD4; also recorded: Degradation is noted” throughout.

For the compound `CCNC(=O)C[C@@H]1N=C(c2ccc(Cl)cc2)c2cc(OCCOCCOCCOCCNC(=O)c3ccc(B(O)O)cc3)ccc2-n2c(C)nnc21` [BRD-E43], on BRD4 [1], the “Degradation … with CRBN ligand 8047” value is “√ (A black check mark indicates efficacy of 30% to 70% or higher protein degradation)” and the “Degradation … with CRBN ligand 8066” value is reported as “√ (A black check mark indicates efficacy of 30% to 70% or higher protein degradation)”. Besides, at BRD4 [2] (setting [7]), the BRD4 degradation result is “causes degradation of BRD4”. Also, the BRD4 degradation entry at BRD4 [2] (setting [8]) is “causes degradation of BRD4; also recorded: Degradation is noted”.

These data come from patent publication US20230285570A1, “THERAPEUTICALLY USEFUL CURE-PRO MOLECULES FOR E3 LIGASE MEDIATED DEGRADATION OF PROTEINS, AND METHODS OF MAKING AND USING THEM” (CORNELL UNIVERSITY, priority 2020, published 2023).
